Results reported in PubChem BioAssay AID2811 (Southern Research Specialized Biocontainment Screening …, 2010).
Active and inactive are the calls of the source. The rule behind the calls is not given here.

Tested on: S. Typhi WT vs phoP-, polymyxin IC50 shift, OD600 24 h
Assay: polymyxin IC50 shift in S. Typhi, Salmonella typhi, set 2 (AID 2811)
Details: stronger effect = lower value; for polymyxin IC50 shift difference (WT - phoP-) / polymyxin IC50 shift: at 150 µM
[1] = measured here: phoP- strain shift
[2] = measured here: wild-type strain shift

Row | Compound | polymyxin IC50 (WT polymyxin IC50 at 150 uM) | polymyxin IC50 shift difference (WT - phoP-) | polymyxin IC50 shift [1] | polymyxin IC50 shift [2] | polymyxin IC50 (phoP- polymyxin IC50 at 150 uM)
1 | CCn1cc(C(=O)O)c(=O)c2cc(F)c(N3CCN(C(=S)Nc4ccccc4C(F)(F)F)CC3)cc21 | 2.53 µM | -9.73 (inactive) | 9.16 | -0.568 | 2.76 µM
2 | COc1cccc(C2Sc3ccccc3NC3=C2C(=O)c2ccccc23)c1 (centres undefined) | 2.58 µM | -3.66 (inactive) | 4.99 | 1.33 | 11.2 µM
3 | O=C(Nc1ccc(Br)cc1)N1CCCN(Cc2ccccc2F)C1 | 7.08 µM | -5.49 (inactive) | 1.55 | -3.93 | 2.62 µM
4 | COc1ccc(CNC(=S)Nc2ccncc2)cc1 | 5.14 µM | -2.86 (inactive) | -0.186 | -3.04 | 4.55 µM
5 | O=C1C2=C(Nc3ccccc3SC2c2ccsc2)c2ccccc21 (centres undefined) | 21.5 µM | -25.9 (inactive) | 6.12 | -19.7 | 
6 | O=C1C2=C(Nc3ccccc3SC2c2ccc(I)cc2)c2ccccc21 (centres undefined) | 25.8 µM | -8.99 (inactive) | 1.81 | -7.18 | 0.04 µM
